Columns and labels:
[1] = biological target: T1, IKZF2 (Homo sapiens, UniProt Q96SW2+Q9UKS7); experiment: Western blot degradation of IKZF2 in hPBMCs (24 h); type: cell-based; settings: compounds at 50 nM and 500 nM
T1 construct: The supernatant was aspirated as the extracted total cell protein; endogenous in cells; host or cells: human peripheral blood mononuclear cells (hPBMCs)
Outline: (§1)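 hPBMCs (1×10^6 cells/mL) were treated with compound at 50 nM and 500 nM for 24 h, lysed in RIPA with protease inhibitors and analysed by SDS-PAGE/Western blot. Band grayscale, normalised to internal control, gave protein remaining (%); DC50 estimated versus DMSO bands.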

[2] = biological target: T2, IKZF1 (Homo sapiens, UniProt Q13422+Q96SW2); experiment: Western blot degradation of IKZF1 in hPBMCs (24 h); type: cell-based; settings: compounds at 50 nM and 500 nM
T2 construct: The supernatant was aspirated as the extracted total cell protein; endogenous in cells; host or cells: human peripheral blood mononuclear cells (hPBMCs)
Outline: as §1

[3] = biological target: T3, CK1α (Homo sapiens, UniProt P48729+Q96SW2); experiment: Western blot degradation of CK1α in hPBMCs (24 h); type: cell-based; settings: compounds at 50 nM and 500 nM
T3 construct: The supernatant was aspirated as the extracted total cell protein; endogenous in cells; host or cells: human peripheral blood mononuclear cells (hPBMCs)
Outline: as §1

[4] = tested on: MGC803 cells; experiment: Inhibition of proliferation of gastric cancer cells MGC803 (cell viability assay, 96 h); type: cell-based, human; settings: read-out: inhibitory activity (IC50) against tumor cells proliferation, MGC803
Procedure: (§2) The tumor cells used herein were cultured in a cell culture medium listed in table 2 at 37 °C in an incubator with 5% CO2. Prior to experimentation, all cell lines used were correctly identified by STR profiling, and tested negative for Mycoplasma contamination using a Mycoplasma detection kit through routine screenings.
The IC50 values of the compounds of the present disclosure (including the compounds in Table 1, and Examples 1-498) were determined using the CellTiter-Meiluncell Luminescent Cell Viability Assay Kit from Dalian Meilun Biotech Co., Ltd. The detailed procedure is as follows: Tumor cells were seeded in 96-well cell culture plates at the densities specified in Table 3. On the following day, the test compounds of the present disclosure were subjected to serial dilution. […] Subsequently, 0.5 μL of the test compound dilution was transferred into the 96-well plate containing the cells, with each well containing 100 μL of cell culture medium. […] Into the 96-well plate, the diluted test compounds and corresponding detection reagents were added, resulting in final test compound concentrations of 500 nM and 10 nM, respectively. The experimental procedure is described below using the diluted 2 μM test compound as an example.
0.5 μL of the aforementioned diluted compound of the present disclosure (including the compounds in Table 1, and Examples 1-498) was added to the seeded cells in 100 μL of medium, yielding a final test compound concentration of 10 nM. After the cells were treated with the compounds of the present disclosure for a specified period, the cell viability assay reagent was added to the culture medium according to the kit's instructions to determine cell viability. […] All controls were treated using the same procedure as the compounds of the present disclosure. The growth inhibition curves for the compounds of the present disclosure were plotted using Prism GraphPad software, and the IC50 values were calculated therefrom.

[5] = tested on: MM.1S cells; experiment: Inhibition of proliferation of multiple myeloma cells MM.1S (cell viability assay, 96 h); type: cell-based, human; settings: read-out: inhibitory activity (IC50) against tumor cells proliferation, MM.1S
[6] = tested on: Jurkat cells; experiment: Inhibition of proliferation of T lymphocytic leukemia cells Jurkat (cell viability assay, 96 h); type: cell-based, human; settings: read-out: inhibitory activity (IC50) against tumor cells proliferation, Jurkat
[7] = biological target: T4, GSPT1 (Homo sapiens, UniProt P15170+Q96SW2); experiment: Western blot degradation of GSPT1 in hPBMCs (24 h); type: cell-based; settings: compounds at 50 nM and 500 nM
T4 construct: The supernatant was aspirated as the extracted total cell protein; endogenous in cells; host or cells: human peripheral blood mononuclear cells (hPBMCs)
Outline: as §1

[8] = biological target: T5, WEE1 (Homo sapiens, UniProt P30291+Q96SW2); experiment: Western blot degradation of WEE1 in hPBMCs (24 h); type: cell-based; settings: compounds at 50 nM and 500 nM
T5 construct: The supernatant was aspirated as the extracted total cell protein; endogenous in cells; host or cells: human peripheral blood mononuclear cells (hPBMCs)
Outline: as §1

[9] = biological target: T6, IKZF3 (Homo sapiens, UniProt Q96SW2+Q9UKT9); experiment: Western blot degradation of IKZF3 in hPBMCs (24 h); type: cell-based; settings: compounds at 50 nM and 500 nM
T6 construct: The supernatant was aspirated as the extracted total cell protein; endogenous in cells; host or cells: human peripheral blood mononuclear cells (hPBMCs)
Outline: as §1

[10] = tested on: H292 cells; experiment: Inhibition of proliferation of human lung cancer cells H292 (CellTiter-Meiluncell Luminescent Cell Viability Assay, 96 h); type: cell-based
Procedure: as §2
(§3) The IC50 values of the compounds of the present disclosure (including the compounds in Table 1, and Examples 1-498) were determined using the CellTiter-Meiluncell Luminescent Cell Viability Assay Kit from Dalian Meilun Biotech Co., Ltd. The detailed procedure is as follows: Tumor cells were seeded in 96-well cell culture plates at the densities specified in Table 3. On the following day, the test compounds of the present disclosure were subjected to serial dilution. […] Subsequently, 0.5 μL of the test compound dilution was transferred into the 96-well plate containing the cells, with each well containing 100 μL of cell culture medium. […]
(§4) 0.5 μL of the aforementioned diluted compound of the present disclosure (including the compounds in Table 1, and Examples 1-498) was added to the seeded cells in 100 μL of medium, yielding a final test compound concentration of 10 nM. […] The growth inhibition curves for the compounds of the present disclosure were plotted using Prism GraphPad software, and the IC50 values were calculated therefrom.

[11] = tested on: H2228 cells; experiment: Inhibition of proliferation of non-small cell lung cancer cells H2228 (cell viability assay, 96 h); type: cell-based, human
Procedure: as §2, §3, §4

[12] = tested on: MDA-MB-231 cells; experiment: Inhibition of proliferation of breast cancer cells MDA-MB-231 (cell viability assay, 96 h); type: cell-based, human
Procedure: as §2, §3, §4

T2 sequence (Q13422 whole entry): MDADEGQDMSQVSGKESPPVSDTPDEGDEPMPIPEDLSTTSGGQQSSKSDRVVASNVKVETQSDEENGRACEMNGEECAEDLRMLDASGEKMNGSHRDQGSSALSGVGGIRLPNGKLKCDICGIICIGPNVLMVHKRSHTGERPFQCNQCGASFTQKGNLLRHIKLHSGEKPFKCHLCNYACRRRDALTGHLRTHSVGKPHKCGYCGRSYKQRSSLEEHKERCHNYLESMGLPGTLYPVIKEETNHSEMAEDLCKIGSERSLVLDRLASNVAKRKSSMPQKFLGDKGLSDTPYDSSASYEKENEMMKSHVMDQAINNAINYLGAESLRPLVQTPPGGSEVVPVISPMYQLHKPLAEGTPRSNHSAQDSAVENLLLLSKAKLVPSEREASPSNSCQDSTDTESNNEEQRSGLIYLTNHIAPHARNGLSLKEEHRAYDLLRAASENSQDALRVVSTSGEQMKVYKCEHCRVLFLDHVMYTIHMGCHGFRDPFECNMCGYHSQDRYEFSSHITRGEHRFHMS
T2 sequence (Q96SW2 whole entry): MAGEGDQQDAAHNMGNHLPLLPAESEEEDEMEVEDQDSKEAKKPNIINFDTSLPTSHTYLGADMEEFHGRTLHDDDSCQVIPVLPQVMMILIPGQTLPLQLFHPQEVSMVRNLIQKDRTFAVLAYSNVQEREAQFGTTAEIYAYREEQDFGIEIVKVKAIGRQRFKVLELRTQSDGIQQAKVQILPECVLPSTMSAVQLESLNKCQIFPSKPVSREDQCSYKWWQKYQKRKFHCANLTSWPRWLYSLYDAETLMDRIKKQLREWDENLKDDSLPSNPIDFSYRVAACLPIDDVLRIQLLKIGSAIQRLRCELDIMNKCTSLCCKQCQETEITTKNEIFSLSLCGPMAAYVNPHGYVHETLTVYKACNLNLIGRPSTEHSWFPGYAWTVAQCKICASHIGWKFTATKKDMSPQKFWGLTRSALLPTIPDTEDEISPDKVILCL
T2 sequence (Q16531 whole entry partner): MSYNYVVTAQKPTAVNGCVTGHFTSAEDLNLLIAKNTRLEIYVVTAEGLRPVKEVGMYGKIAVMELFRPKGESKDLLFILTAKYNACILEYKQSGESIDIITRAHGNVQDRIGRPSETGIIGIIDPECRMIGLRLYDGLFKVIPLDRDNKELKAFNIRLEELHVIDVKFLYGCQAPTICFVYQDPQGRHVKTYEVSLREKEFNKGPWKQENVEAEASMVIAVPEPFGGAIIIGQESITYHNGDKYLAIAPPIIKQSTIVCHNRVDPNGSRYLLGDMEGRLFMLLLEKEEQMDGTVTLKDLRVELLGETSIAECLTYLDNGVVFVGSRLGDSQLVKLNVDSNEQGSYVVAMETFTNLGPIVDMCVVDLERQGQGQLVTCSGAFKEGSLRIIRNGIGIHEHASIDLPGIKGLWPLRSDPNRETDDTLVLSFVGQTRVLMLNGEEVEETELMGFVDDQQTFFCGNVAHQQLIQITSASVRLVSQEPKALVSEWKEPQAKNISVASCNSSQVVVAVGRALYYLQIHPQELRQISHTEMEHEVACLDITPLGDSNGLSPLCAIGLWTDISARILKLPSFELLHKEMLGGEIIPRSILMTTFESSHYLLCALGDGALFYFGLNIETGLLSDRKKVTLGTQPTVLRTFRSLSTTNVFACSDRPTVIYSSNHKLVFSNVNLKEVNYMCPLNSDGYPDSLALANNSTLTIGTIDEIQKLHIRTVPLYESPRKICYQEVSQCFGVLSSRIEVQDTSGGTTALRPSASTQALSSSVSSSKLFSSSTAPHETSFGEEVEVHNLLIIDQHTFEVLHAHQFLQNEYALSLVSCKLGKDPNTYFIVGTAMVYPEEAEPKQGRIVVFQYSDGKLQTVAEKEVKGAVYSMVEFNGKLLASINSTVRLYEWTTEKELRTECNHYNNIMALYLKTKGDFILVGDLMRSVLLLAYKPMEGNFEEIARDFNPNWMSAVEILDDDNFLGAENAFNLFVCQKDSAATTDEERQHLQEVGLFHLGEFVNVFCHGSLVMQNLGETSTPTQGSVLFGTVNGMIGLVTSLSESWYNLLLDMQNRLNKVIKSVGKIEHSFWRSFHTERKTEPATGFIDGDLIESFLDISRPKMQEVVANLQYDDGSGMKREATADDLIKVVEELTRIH
T5 sequence (P30291 whole entry): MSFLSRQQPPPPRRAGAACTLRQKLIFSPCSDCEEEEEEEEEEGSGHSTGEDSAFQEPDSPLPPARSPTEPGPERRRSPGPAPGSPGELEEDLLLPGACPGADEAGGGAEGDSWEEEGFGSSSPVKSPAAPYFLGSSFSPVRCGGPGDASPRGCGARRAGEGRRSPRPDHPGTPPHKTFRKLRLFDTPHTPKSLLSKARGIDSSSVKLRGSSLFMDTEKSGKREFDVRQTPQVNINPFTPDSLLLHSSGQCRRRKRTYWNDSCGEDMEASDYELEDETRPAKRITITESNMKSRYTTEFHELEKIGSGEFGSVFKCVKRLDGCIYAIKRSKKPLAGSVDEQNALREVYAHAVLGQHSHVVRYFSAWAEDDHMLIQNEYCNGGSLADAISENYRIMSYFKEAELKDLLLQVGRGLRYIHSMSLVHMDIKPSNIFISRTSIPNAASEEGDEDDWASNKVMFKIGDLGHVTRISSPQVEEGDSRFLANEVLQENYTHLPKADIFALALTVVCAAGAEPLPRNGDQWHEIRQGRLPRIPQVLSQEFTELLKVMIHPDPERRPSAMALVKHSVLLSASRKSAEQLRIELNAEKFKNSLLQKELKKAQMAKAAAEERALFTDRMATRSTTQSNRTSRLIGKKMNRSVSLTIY
T5 sequence (Q96SW2 whole entry): as the sequence (Q96SW2 whole entry) above
T5 sequence (Q16531 whole entry partner): as the sequence (Q16531 whole entry partner) above
T6 sequence (Q9UKT9 whole entry): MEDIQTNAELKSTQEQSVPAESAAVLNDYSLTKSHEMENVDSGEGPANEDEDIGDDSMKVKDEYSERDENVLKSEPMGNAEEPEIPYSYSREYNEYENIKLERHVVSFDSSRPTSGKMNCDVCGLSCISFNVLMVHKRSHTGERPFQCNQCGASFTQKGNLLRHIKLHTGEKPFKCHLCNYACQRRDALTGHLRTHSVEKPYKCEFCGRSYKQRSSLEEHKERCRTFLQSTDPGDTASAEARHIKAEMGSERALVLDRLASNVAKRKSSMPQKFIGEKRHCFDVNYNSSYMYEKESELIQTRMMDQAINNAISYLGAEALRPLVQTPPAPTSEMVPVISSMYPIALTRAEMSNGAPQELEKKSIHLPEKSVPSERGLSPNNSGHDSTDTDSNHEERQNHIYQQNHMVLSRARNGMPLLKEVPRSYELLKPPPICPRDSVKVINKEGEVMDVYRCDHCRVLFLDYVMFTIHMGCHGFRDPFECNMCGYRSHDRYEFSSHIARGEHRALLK
T6 sequence (Q96SW2 whole entry): as the sequence (Q96SW2 whole entry) above
T6 sequence (Q16531 whole entry partner): as the sequence (Q16531 whole entry partner) above
T1 sequence (Q9UKS7 whole entry): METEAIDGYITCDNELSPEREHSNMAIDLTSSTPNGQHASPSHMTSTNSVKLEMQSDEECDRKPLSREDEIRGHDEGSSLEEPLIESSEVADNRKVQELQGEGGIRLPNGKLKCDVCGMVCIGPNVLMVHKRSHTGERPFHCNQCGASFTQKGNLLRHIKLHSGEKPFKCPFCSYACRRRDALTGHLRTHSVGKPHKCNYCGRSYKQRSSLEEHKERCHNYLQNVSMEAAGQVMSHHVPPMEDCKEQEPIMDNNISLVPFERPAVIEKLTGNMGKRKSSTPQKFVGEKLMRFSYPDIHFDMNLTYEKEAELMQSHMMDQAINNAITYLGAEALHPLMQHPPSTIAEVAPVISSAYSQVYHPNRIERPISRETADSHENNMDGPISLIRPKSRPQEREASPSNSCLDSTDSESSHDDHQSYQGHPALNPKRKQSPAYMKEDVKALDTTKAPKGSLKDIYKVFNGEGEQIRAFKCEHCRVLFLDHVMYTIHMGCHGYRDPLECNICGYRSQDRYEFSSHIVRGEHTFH
T1 sequence (Q96SW2 whole entry): as the sequence (Q96SW2 whole entry) above
T1 sequence (Q16531 whole entry partner): as the sequence (Q16531 whole entry partner) above
T3 sequence (P48729 whole entry): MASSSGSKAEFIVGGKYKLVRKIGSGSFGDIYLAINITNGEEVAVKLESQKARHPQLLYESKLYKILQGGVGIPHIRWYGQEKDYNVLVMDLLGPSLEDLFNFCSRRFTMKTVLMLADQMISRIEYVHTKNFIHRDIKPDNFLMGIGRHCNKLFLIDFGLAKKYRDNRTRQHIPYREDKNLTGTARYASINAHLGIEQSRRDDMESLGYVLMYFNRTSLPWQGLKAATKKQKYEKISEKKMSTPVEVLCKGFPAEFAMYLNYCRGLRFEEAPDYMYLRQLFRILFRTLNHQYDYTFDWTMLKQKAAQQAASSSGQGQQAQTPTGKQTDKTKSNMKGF
T3 sequence (Q96SW2 whole entry): as the sequence (Q96SW2 whole entry) above
T3 sequence (Q16531 whole entry partner): as the sequence (Q16531 whole entry partner) above

| Compound | IKZF2 substrate protein remaining % [1] | IKZF1 substrate protein remaining % [2] | CK1α substrate protein remaining % [3] | IC50 [4] | IC50 [5] | IC50 [6] | GSPT1 substrate protein remaining % [7] | WEE1 substrate protein remaining % [8] | IKZF3 substrate protein remaining % [9] | Inhibition Rate at 10 nM (%) ([10]; H292, 10 nM) | Inhibition Rate at 500 nM (%) ([10]; H292, 500 nM) | Inhibition Rate at 10 nM (%) ([11]; H2228, 10 nM) | Inhibition Rate at 500 nM (%) ([11]; H2228, 500 nM) | Inhibition Rate at 10 nM (%) ([12]; MDA-MB-231, 10 nM) | Inhibition Rate at 500 nM (%) ([12]; MDA-MB-231, 500 nM) |
| --- | --- | --- | --- | --- | --- | --- | --- | --- | --- | --- | --- | --- | --- | --- | --- |
| O=C1CCN(N2Cc3cc(CN4CC=C(c5ccsc5)CC4)ccc3C2=O)C(=O)N1 [GT-04871, 1-(1-oxo-5-((4-(thiophen-3-yl)-3,6-dihydropyridin-1(2H)-yl)methyl)isoindolin-2-yl)dihydropyrimidine-2,4(1H,3H)-dione] | B (80%< substrate protein remaining % ≤100%) | A (0% ≤ substrate protein remaining % ≤80%) | B (80%< substrate protein remaining % ≤100%) | 300 to 500 nM | 100 to 300 nM | 300 to 500 nM | A (0% ≤ substrate protein remaining % ≤80%) | A (0% ≤ substrate protein remaining % ≤80%) | B (80%< substrate protein remaining % ≤100%) | – | – | – | – | – | – |
| Cc1cscc1C1=CCN(Cc2ccc3c(c2)CN(N2CCC(=O)NC2=O)C3=O)CC1 [GT-04872, 1-(5-((4-(4-methylthiophen-3-yl)-3,6-dihydropyridin-1(2H)-yl)methyl)-1-oxoisoindolin-2-yl)dihydropyrimidine-2,4(1H,3H)-dione] | B (80%< substrate protein remaining % ≤100%) | A (0% ≤ substrate protein remaining % ≤80%) | B (80%< substrate protein remaining % ≤100%) | 100 to 300 nM | 10 to 50 nM | 100 to 300 nM | A (0% ≤ substrate protein remaining % ≤80%) | A (0% ≤ substrate protein remaining % ≤80%) | B (80%< substrate protein remaining % ≤100%) | – | – | – | – | – | – |
| Cc1cc(C2=CCN(Cc3ccc4c(c3)CN(N3CCC(=O)NC3=O)C4=O)CC2)cs1 [GT-04873, 1-(5-((4-(5-methylthiophen-3-yl)-3,6-dihydropyridin-1(2H)-yl)methyl)-1-oxoisoindolin-2-yl)dihydropyrimidine-2,4(1H,3H)-dione] | B (80%< substrate protein remaining % ≤100%) | A (0% ≤ substrate protein remaining % ≤80%) | B (80%< substrate protein remaining % ≤100%) | 100 to 300 nM | 50 to 100 nM | 100 to 300 nM | A (0% ≤ substrate protein remaining % ≤80%) | A (0% ≤ substrate protein remaining % ≤80%) | A (0% ≤ substrate protein remaining % ≤80%) | – | – | – | – | – | – |
| O=C1CCN(N2Cc3cc(CN4CCN(C(c5ccccc5)c5ccccc5)CC4)ccc3C2=O)C(=O)N1 [GT-04889, 1-(5-((4-benzhydrylpiperazin-1-yl)methyl)-1-oxoisoindolin-2-yl)dihydropyrimidine-2,4(1H,3H)-dione] | A (0% ≤ substrate protein remaining % ≤80%) | A (0% ≤ substrate protein remaining % ≤80%) | B (80%< substrate protein remaining % ≤100%) | 300 to 500 nM | 100 to 300 nM | 300 to 500 nM | A (0% ≤ substrate protein remaining % ≤80%) | A (0% ≤ substrate protein remaining % ≤80%) | A (0% ≤ substrate protein remaining % ≤80%) | – | – | – | – | – | – |
| O=C1CCN(N2Cc3cc(CN4CCC(N(c5ccccc5)c5ccccc5)CC4)ccc3C2=O)C(=O)N1 [GT-04939, 1-(5-((4-(diphenylamino)piperidin-1-yl)methyl)-1-oxoisoindolin-2-yl)dihydropyrimidine-2,4(1H,3H)-dione] | A (0% ≤ substrate protein remaining % ≤80%) | A (0% ≤ substrate protein remaining % ≤80%) | A (0% ≤ substrate protein remaining % ≤80%) | 100 to 300 nM | 10 to 50 nM | 100 to 300 nM | A (0% ≤ substrate protein remaining % ≤80%) | A (0% ≤ substrate protein remaining % ≤80%) | A (0% ≤ substrate protein remaining % ≤80%) | – | – | – | – | – | – |
| O=C1CCN(N2Cc3cc(CN4CCC(N(c5ccccc5)c5ccccn5)CC4)ccc3C2=O)C(=O)N1 [GT-04940, 1-(1-oxo-5-((4-(phenyl(pyridin-2-yl)amino)piperidin-1-yl)methyl)isoindolin-2-yl)dihydropyrimidine-2,4(1H,3H)-dione] | A (0% ≤ substrate protein remaining % ≤80%) | A (0% ≤ substrate protein remaining % ≤80%) | A (0% ≤ substrate protein remaining % ≤80%) | 100 to 300 nM | 50 to 100 nM | 100 to 300 nM | A (0% ≤ substrate protein remaining % ≤80%) | A (0% ≤ substrate protein remaining % ≤80%) | A (0% ≤ substrate protein remaining % ≤80%) | – | – | – | – | – | – |
| O=C1CCN(N2Cc3cc(CN4CCC(Nc5ccccc5-c5ccc(Cl)cc5)CC4)ccc3C2=O)C(=O)N1 [GT-04943, 1-(5-((4-((4′-chloro-[1,1′-biphenyl]-2-yl)amino)piperidin-1-yl)methyl)-1-oxoisoindolin-2-yl)dihydropyrimidine-2,4(1H,3H)-dione] | A (0% ≤ substrate protein remaining % ≤80%) | A (0% ≤ substrate protein remaining % ≤80%) | B (80%< substrate protein remaining % ≤100%) | 100 to 300 nM | 10 to 50 nM | 100 to 300 nM | A (0% ≤ substrate protein remaining % ≤80%) | A (0% ≤ substrate protein remaining % ≤80%) | A (0% ≤ substrate protein remaining % ≤80%) | – | – | – | – | – | – |
| Nc1cccc2c1CN(C1CCC(=O)NC1=O)C2=O (stereo not drawn) [lenalidomide, reference compound] | – | – | – | – | – | – | – | – | – | b1 (0 < b1 <1%) | b3 (5% ≤ b3 <10%) | d5 (20% ≤ d5 <25%) | d4 (15% ≤ d4 <20%) | f4 (15% ≤ f4 <18%) | f3 (10% ≤ f3 < 15%) |
